This note sets out measurements from patent US20250122182A1 (Isosterix, Inc., priority 2023, published 2025).

The assay addresses Recombinant KAT6A/MOZ (488-778) protein (Homo sapiens (Human), UniProt Q92794). The assay can be described thus: KAT6A AlphaLISA Inhibition Screening Assay. The format is biochemical. The following applies: for inhibition at 1 µM: read-out: Average Kat6A % inhibition @ 1 μM; for inhibition at 1 µM / Average Kat6A % inhibition @ 1 μM: 1 μM test compound; for inhibition at 10 µM: read-out: Average Kat6A % inhibition @ 10 μM; for inhibition at 10 µM / Average Kat6A % inhibition @ 10 μM: 10 μM test compound. The method, then: The Kat6a inhibitory activity of test compounds was determined using an Alpha Screen-based detection method. The assay reactions were conducted in a volume of 10 μL in Alpha Plate, White 384 well plate (cat #6008280, Perkin Elmer). The enzymatic reactions were performed in assay buffer pH 8.0 (50 mM Tris-HCl, 0.1 mM EDTA, 0.01% Tween-20, 1 mM Dithiothreitol, 0.1% BSA (fatty acid free) and 330 nM TSA (Trichostatin A)). 10 μL reaction volume consisting of 25 nM of Recombinant KAT6A/MOZ (488-778) protein (Active motif, Catalog #81223), 400 nM Acetyl coenzyme A (Catalog #A2056, Sigma), 200 nM of Histone H3 peptide [(amino acids 1-21), biotin-labeled (BPS Biosciences, Catalog #52011)]. Test compounds were screened at different doses starting with 10 μM, 3 fold dilution and 10 point Dose response curve. Enzyme and compounds solution were pre-incubated in assay plate for 60 or 10 min at room temperature then substrate and Acetyl coenzyme A solution were added to the plate. After addition, the plate was sealed with adhesive seals and incubated for 120 minutes at room temperature.
After 120 minutes of incubation, […] of AlphaLISA anti-acetyl-Lysine acceptor beads (Perkin Elmer, Catalog #AL143C) were added to the plate and it was incubated for 60 minutes at room temperature. Then […] of Alpha Streptavidin donor beads (Perkin Elmer, Catalog #6760002S) were added to the plate which was further incubated for 60 minutes at room temperature. After incubation, the alpha signal was recorded by using Perkin Elmer Envision multi-mode reader. Percent inhibition of enzyme activity by test compounds were determined relative to vehicle control.

SMILES strings stand for the structures.

Sequence of Recombinant KAT6A/MOZ (488-778) protein (Q92794 488-778): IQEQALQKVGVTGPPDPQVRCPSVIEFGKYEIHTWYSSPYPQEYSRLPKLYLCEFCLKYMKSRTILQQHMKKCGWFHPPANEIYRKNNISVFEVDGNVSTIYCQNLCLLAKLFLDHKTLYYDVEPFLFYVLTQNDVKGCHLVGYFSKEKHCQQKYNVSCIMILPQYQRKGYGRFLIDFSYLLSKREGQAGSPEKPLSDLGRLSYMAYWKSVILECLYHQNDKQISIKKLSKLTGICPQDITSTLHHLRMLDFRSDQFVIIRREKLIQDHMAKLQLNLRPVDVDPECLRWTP

On to `CCc1ccc(OC)c(S(=O)(=O)Nc2noc3cc(Cn4cc(CNC(=O)[C@@H](C)F)cn4)cc(OC)c23)c1` (single isomer, unassigned) [Syn. Ex. 47a], for which the inhibition at 1 µM is 100% and the inhibition at 10 µM stood at 100%.

`CCc1ccc(OC)c(S(=O)(=O)Nc2noc3cc(Cn4cc(CNC(=O)[C@H](C)F)cn4)cc(OC)c23)c1` (single isomer, unassigned) [Syn. Ex. 47b]: the inhibition at 1 µM amounted to 96% and the inhibition at 10 µM turned out to be 100%.

For the compound `C#CC(=O)N1Cc2cnn(Cc3cc(OC)c4c(NS(=O)(=O)c5cc(Cl)ccc5OC)noc4c3)c2C1` [Syn. Ex. 1, 5-chloro-2-methoxy-N-(4-methoxy-6-((5-propioloyl-5,6-dihydropyrrolo[3,4-c]pyrazol-1(4H)-yl)methyl)benzo[d]isoxazol-3-yl)benzenesulfonamide], the inhibition at 1 µM was determined as 100% and the inhibition at 10 µM was determined as 100%.

For `C#CC(=O)N1Cc2cn(Cc3cc(OC)c4c(NS(=O)(=O)c5cc(Cl)ccc5OC)noc4c3)nc2C1` [Syn. Ex. 2, 5-chloro-2-methoxy-N-(4-methoxy-6-((5-propioloyl-5,6-dihydropyrrolo[3,4-c]pyrazol-2(4H)-yl)methyl)benzo[d]isoxazol-3-yl)benzenesulfonamide], the inhibition at 1 µM came out at 71% and the inhibition at 10 µM is 100%.

With `CCC(=O)N1Cc2cnn(Cc3cc(OC)c4c(NS(=O)(=O)c5ccccc5OC)noc4c3)c2C1` [Syn. Ex. 3, 2-methoxy-N-(4-methoxy-6-((5-propionyl-5,6-dihydropyrrolo[3,4-c]pyrazol-1(4H)-yl)methyl)benzo[d]isoxazol-3-yl)benzenesulfonamide], the inhibition at 1 µM turned out to be 100% and the inhibition at 10 µM came to 100%.

For the compound `C#CC(=O)N1Cc2cnn(Cc3cc(OC)c4c(NS(=O)(=O)c5cc(OC)ccc5OC)noc4c3)c2C1` [Syn. Ex. 4, 2,5-dimethoxy-N-(4-methoxy-6-((5-propioloyl-5,6-dihydropyrrolo[3,4-c]pyrazol-1(4H)-yl)methyl)benzo[d]isoxazol-3-yl)benzenesulfonamide], the inhibition at 1 µM stood at 100% and the inhibition at 10 µM stood at 100%.

With `C#CC(=O)N1Cc2cn(Cc3cc(OC)c4c(NS(=O)(=O)c5cc(OC)ccc5OC)noc4c3)nc2C1` [Syn. Ex. 5, 2,5-dimethoxy-N-(4-methoxy-6-((5-propioloyl-5,6-dihydropyrrolo[3,4-c]pyrazol-2(4H)-yl)methyl)benzo[d]isoxazol-3-yl)benzenesulfonamide], the inhibition at 1 µM is 83% and the inhibition at 10 µM came out at 100%.

`COc1ccccc1S(=O)(=O)Nc1noc2cc(Cn3cc(CNS(C)(=O)=O)cn3)cc(OC)c12` [Syn. Ex. 6, 2-methoxy-N-(4-methoxy-6-((4-(methylsulfonamidomethyl)-1H-pyrazol-1-yl)methyl)benzo[d]isoxazol-3-yl) benzenesulfonamide]: the “Average Kat6A % inhibition @ 1 μM” value stood at 99% and the “Average Kat6A % inhibition @ 10 μM” value is 100%.

`CCc1ccc(OC)c(S(=O)(=O)Nc2noc3cc(Cn4cc(CNC(C)=O)cn4)cc(OC)c23)c1` [Syn. Ex. 8, N-((1-((3-((5-ethyl-2-methoxyphenyl)sulfonamido)-4-methoxybenzo[d]isoxazol-6-yl)methyl)-1H-pyrazol-4-yl)methyl) acetamide]: the inhibition at 1 µM was 99% and the inhibition at 10 µM was determined as 100%.

As to `C#CC(=O)N1CCc2cnn(Cc3cc(OC)c4c(NS(=O)(=O)c5cc(CC)ccc5OC)noc4c3)c2CC1` [Syn. Ex. 9, 5-ethyl-2-methoxy-N-(4-methoxy-6-((6-propioloyl-5,6,7,8-tetrahydropyrazolo[3,4-d]azepin-1(4H)-yl)methyl)benzo[d]isoxazol-3-yl)benzenesulfonamide], the inhibition at 1 µM came to 61% and the inhibition at 10 µM amounted to 100%.

In the case of `COc1ccc(S(=O)(=O)Nc2noc3cc(Cn4cc(CNS(C)(=O)=O)cn4)cc(OC)c23)c(OC)c1` [Syn. Ex. 10, 2,4-dimethoxy-N-(4-methoxy-6-((4-(methylsulfonamidomethyl)-1H-pyrazol-1-yl)methyl)benzo[d]isoxazol-3-yl)benzenesulfonamide], the inhibition at 1 µM is 100% and the inhibition at 10 µM was 100%.

On to `CC#CC(=O)N1Cc2cnn(Cc3cc(OC)c4c(NS(=O)(=O)c5cc(CC)ccc5OC)noc4c3)c2C1` [Syn. Ex. 11, N-(6-((5-(but-2-ynoyl)-5,6-dihydropyrrolo[3,4-c]pyrazol-1(4H)-yl)methyl)-4-methoxybenzo[d]isoxazol-3-yl)-5-ethyl-2-methoxybenzenesulfonamide], for which the inhibition at 1 µM was 100% and the inhibition at 10 µM came to 100%.

Regarding `CC#CC(=O)N1Cc2cn(Cc3cc(OC)c4c(NS(=O)(=O)c5cc(CC)ccc5OC)noc4c3)nc2C1` [Syn. Ex. 12, N-(6-((5-(but-2-ynoyl)-5,6-dihydropyrrolo[3,4-c]pyrazol-2(4H)-yl)methyl)-4-methoxybenzo[d]isoxazol-3-yl)-5-ethyl-2-methoxybenzenesulfonamide], the inhibition at 1 µM stood at 38% and the inhibition at 10 µM came out at 97%.

As for `C=C(F)C(=O)N1Cc2cnn(Cc3cc(OC)c4c(NS(=O)(=O)c5cc(CC)ccc5OC)noc4c3)c2C1` [Syn. Ex. 13, 5-ethyl-N-(6-((5-(2-fluoroacryloyl)-5,6-dihydropyrrolo[3,4-c]pyrazol-1(4H)-yl)methyl)-4-methoxybenzo[d]isoxazol-3-yl)-2-methoxybenzenesulfonamide], the inhibition at 1 µM came to 99% and the inhibition at 10 µM was determined as 100%.

Consider `CCOC(=O)NCc1cnn(Cc2cc(OC)c3c(NS(=O)(=O)c4cc(CC)ccc4OC)noc3c2)c1` [Syn. Ex. 16, ethyl ((1-((3-((5-ethyl-2-methoxyphenyl)sulfonamido)-4-methoxybenzo[d]isoxazol-6-yl)methyl)-1H-pyrazol-4-yl)methyl)carbamate], for which the inhibition at 1 µM was 98% and the inhibition at 10 µM stood at 98%.

For the compound `CCc1ccc(OC)c(S(=O)(=O)Nc2noc3cc(Cn4cc(CNC(=O)OC)cn4)cc(OC)c23)c1` [Syn. Ex. 17, methyl ((1-((3-((5-ethyl-2-methoxyphenyl)sulfonamido)-4-methoxybenzo[d]isoxazol-6-yl)methyl)-1H-pyrazol-4-yl)methyl)carbamate], the inhibition at 1 µM was found to be 99% and the inhibition at 10 µM was found to be 100%.

Regarding `CCc1ccc(OC)c(S(=O)(=O)Nc2noc3cc(Cn4cc(CNS(=O)(=O)CCOC)cn4)cc(OC)c23)c1` [Syn. Ex. 18, 5-ethyl-2-methoxy-N-(4-methoxy-6-((4-(((2-methoxyethyl)sulfonamido)methyl)-1H-pyrazol-1-yl)methyl)benzo[d]isoxazol-3-yl)benzenesulfonamide], the inhibition at 1 µM amounted to 97% and the inhibition at 10 µM turned out to be 98%.

Regarding `COc1cc(C)c(C)cc1S(=O)(=O)Nc1noc2cc(Cn3cc(CNS(C)(=O)=O)cn3)cc(OC)c12` [Syn. Ex. 20, 2-methoxy-N-(4-methoxy-6-((4-(methylsulfonamidomethyl)-1H-pyrazol-1-yl)methyl)benzo[d]isoxazol-3-yl)-4,5-dimethylbenzenesulfonamide], the inhibition at 1 µM stood at 100% and the inhibition at 10 µM came to 100%.

Take `C#CC(=O)NCc1cnn(Cc2cc(OC)c3c(NS(=O)(=O)c4cc(Cl)c(C)cc4OC)noc3c2)c1` [Syn. Ex. 21, N-((1-((3-((5-chloro-2-methoxy-4-methylphenyl)sulfonamido)-4-methoxybenzo[d]isoxazol-6-yl)methyl)-1H-pyrazol-4-yl)methyl)propiolamide]: the inhibition at 1 µM came to 100% and the inhibition at 10 µM is 99%.

Regarding `COc1cc(C)c(Cl)cc1S(=O)(=O)Nc1noc2cc(Cn3cc(CNS(C)(=O)=O)cn3)cc(OC)c12` [Syn. Ex. 22, 5-chloro-2-methoxy-N-(4-methoxy-6-((4-(methylsulfonamidomethyl)-1H-pyrazol-1-yl)methyl)benzo[d]isoxazol-3-yl)-4-methylbenzenesulfonamide], the inhibition at 1 µM was determined as 100% and the inhibition at 10 µM was 100%.

Take `COc1cc2c(cc1S(=O)(=O)Nc1noc3cc(Cn4cc(CNS(C)(=O)=O)cn4)cc(OC)c13)CCC2` [Syn. Ex. 24, 6-methoxy-N-(4-methoxy-6-((4-(methylsulfonamidomethyl)-1H-pyrazol-1-yl)methyl)benzo[d]isoxazol-3-yl)-2,3-dihydro-1H-indene-5-sulfonamide]: the inhibition at 1 µM worked out at 99% and the inhibition at 10 µM is 100%.

`C#CC(=O)N1Cc2cnn(Cc3cc(OC)c4c(NS(=O)(=O)c5ccc(C#N)cc5OC)noc4c3)c2C1` [Syn. Ex. 26, 4-cyano-2-methoxy-N-(4-methoxy-6-((5-propioloyl-5,6-dihydropyrrolo[3,4-c]pyrazol-1(4H)-yl)methyl)benzo[d]isoxazol-3-yl) benzenesulfonamide]: the “Average Kat6A % inhibition @ 1 μM” value turned out to be 99% and the “Average Kat6A % inhibition @ 10 μM” value is recorded as 100%.
